Data published in patent US9145425B2, “Cephem compound having catechol group” (SHIONOGI & CO., LTD., priority 2010, dated 2015).
Where a name gives a salt, the structure may show the parent alone. Read-outs that look alike come from different tables or passages of the source.

Legend:
[1] = system: P. aeruginosa SR27001 (multi-resistant Pseudomonas aeruginosa; IMP-1 producing strain); experiment: Antimicrobial activity in vitro (MIC) of the in vivo test compounds; type: cell-based; conditions: addition of Tf
Experimental: Measurement of Minimum Inhibitory Concentration (MIC, μg/ml) was conducted according to the standard method of the Japan Society for Chemotherapy and the amount of bacteria for inoculation was 1000 cfu/spot, and sensitive disc medium was used as the test medium, and conducted using agar plate incubation.
The antimicrobial activity in vitro (MIC) of the test compounds was determined according to the method of Experimental Example 1.

[2] = system: P. aeruginosa SR27001 (multi-resistant Pseudomonas aeruginosa; IMP-1 producing strain); experiment: Antimicrobial activity in vivo, mouse intraperitoneal infection, ED50 from survival rate; conditions: Mice (ICR type, male, 5 weeks), intravenous administration in twice from 1.5 h after infection, survival rate after 7 days
Experimental: The antimicrobial activity in vivo of the present compound (I) was determined.
Mice (ICR type, male, 5 weeks) were inoculated intraperitoneally with P. aeruginosa SR27001 (multi-resistant Pseudomonas aeruginosa; IMP-1 producing strain) to raise infection. One and half hours after, mice were treated with intravenious administration in twice, and then the ED50 value was calculated based on the survival rate after 7 days.

[3] = system: Stenotrophomonas maltophilia SR21970; experiment: Minimum Inhibitory Concentration (MIC), agar plate incubation, CLSI method; type: cell-based; conditions: Stenotrophomonas maltophilia SR21970; L-1, MBL producer strain (carbapenem resistant strain); 10000 cfu/spot; Mueller-Hinton agar medium
Summary of the method: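 MIC against Stenotrophomonas maltophilia SR21970 determined by CLSI agar dilution on Mueller-Hinton agar, inoculum 10000 cfu/spot. Values in μg/ml.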

[4] = system: Pseudomonas aeruginosa SR24; experiment: Minimum Inhibitory Concentration (MIC), agar plate incubation, Japan Society for Chemotherapy standard method; type: cell-based; conditions: Pseudomonas aeruginosa SR24; no enzyme, ceftazidime sensitive strain; 1000 cfu/spot; sensitive disc medium
Summary of the method: (§1)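 MIC (μg/ml) by agar plate method per Japan Society for Chemotherapy standard. Inoculum 1000 cfu/spot on sensitive disc medium.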

[5] = system: Acinetobacter baumannii SR24396; experiment: as above; type: cell-based; conditions: Acinetobacter baumannii SR24396; no enzyme; 1000 cfu/spot; sensitive disc medium
Summary of the method: as §1

[6] = system: Pseudomonas aeruginosa SR27060; experiment: as above; type: cell-based; conditions: Pseudomonas aeruginosa SR27060; IMP-1, MBL producer strain (carbapenem resistant strain); 1000 cfu/spot; sensitive disc medium
Summary of the method: as §1

[7] = system: Klebsiella pneumoniae ATCC 700603; experiment: as above; type: cell-based; conditions: Klebsiella pneumoniae ATCC 700603; SHV-18, ESBL producer strain; 1000 cfu/spot; sensitive disc medium
Summary of the method: as §1

[8] = Pseudomonas aeruginosa, read-out: MIC
[9] = Pseudomonas aeruginosa, read-out: ED50

MIC [1, 8] [µg/mL]	MIC [1] [µg/mL]	Minimum Inhibitory Concentration (MIC) [3] [µg/mL]	Minimum Inhibitory Concentration (MIC) [4] [µg/mL]	Minimum Inhibitory Concentration (MIC) [5] [µg/mL]	Minimum Inhibitory Concentration (MIC) [6] [µg/mL]	Minimum Inhibitory Concentration (MIC) [7] [µg/mL]	Structure (SMILES)	ED50 [2, 9] [mg/kg]	ED50 [2] [mg/kg]
> 64							CO/N=C(\C(=O)N[C@@H]1C(=O)N2C(C(=O)[O-])=C(C[N+]3(C)CCCC3)CS[C@H]12)c1csc(N)n1 [CFPM, cefepime hydrochloride hydrate, reference compound]	> 100	
1							C[C@H](O/N=C(\C(=O)N[C@@H]1C(=O)N2C(C(=O)[O-])=C(C[N+]34CCC[C@H]3CN(C(=O)c3ccc(O)c(O)c3Cl)CC4)CS[C@H]12)c1csc(N)n1)C(=O)[O-].[Na+] (stereo partly shown) [Compound I-13]	4.22	
	2						CC(C)(ON=C(C(=O)NC1C(=O)N2C(C(=O)[O-])=C(C[N+](C)(C)C3CCN(C(=O)c4ccc(O)c(O)c4Cl)C3)CSC12)c1csc(N)n1)C(=O)[O-].[Na+] (stereo not shown) [Compound I-20]		5.48
	1	1	0.125	0.125	0.5	0.25	CCC(ON=C(C(=O)NC1C(=O)N2C(C(=O)[O-])=C(C[N+]34CCC(CC3)N(C(=O)c3ccc(O)c(O)c3Cl)CC4)CSC12)c1csc(N)n1)C(=O)[O-].[Na+] (stereo not shown) [Compound I-25]		3.34
